Data as given in patent US20100112012A1, “MODULATION OF IMMUNE RESPONSES” (CLEVELAND CLINIC FOUNDATION, priority 2005, published 2010).
“Also recorded” adds a separate entry of the source.

Assays:
p53 [1] = assay: Screening for p53-activating compounds, p53-responsive reporter in RCC45ConALacZ cells; assay type: cell-based, human
Procedure: (§1) Transient transfections. 2×10^5 cells were plated into 6-well plates and, after overnight incubation, transfected with Lipofectamin Plus reagent (Gibco BRL) with 0.5 μg of reporter plasmids (p21-ConALuc or pNF-κBLuc) in combination with different concentrations of plasmids expressing p53, Arf, Ss-IκB, or siHDM2. Corresponding empty vectors were added in all transfections up to 2 μg of total DNA. Normalization of transfection efficiency was done by adding 0.2 μg of pCMV-LacZ plasmid. Luciferase activity and β-galactosidase activity were measured in lysates prepared 48 hours after transfection with Cell Lysis Buffer (Promega) by the luciferase assay system (Promega) or β-galactosidase enzyme system (Promega). Luminometric and colorimetric reactions were read on the Wallack 1420 plate reader (Perkin Elmer). Stable transduction of reporters. 2×10^4 cells with integrated reporter were plated in 96-well plates. After overnight incubation, chemicals or media from lentivirus-producing cells were added. At different times, cell lysates were prepared using Reporter Lysis Buffer (Promega). Luciferase or β-galactosidase activity and protein concentration were measured in aliquots of cell lysates using standard kits (Promega, Luciferase and β-galactosidase assay systems, Biorad Protein Assay Kit).
The DiverSet library of 34,000 chemical compounds and focused libraries of structural analogues of selected hits were provided by Chembridge, Calif. Cell lines with p53- or NF-κB-responsive luciferase or β-galactosidase reporters were described previously (5, 7). For screening chemicals, 2×10^4 RCC45ConALacZ cells (RCC45-based p53 reporter cells) were plated per well of 96-well plates in 200 μL of phenol-red-free RPMI medium with standard additions. After overnight incubation, the compounds were added to final concentrations of 5-15 μM (0.2 μL of compound in DMSO per well). […] After 24 h, lysis buffer with ortho-nitrophenyl-β-D-galactopyranoside (ONPG) was added and β-galactosidase activity was estimated colorimetrically by a multiwell plate reader.

proteasomal activity = assay: Proteasome inhibitor assay; assay type: biochemical; details: direct in vitro assay (not shown)
From the text: The kit for assaying proteasomal activity was purchased from Boston Biochem, Inc. and used according to the manufacturer's recommendations.

histone H2A.X = assay: Immunofluorescent detection of phosphorylated histone H2A.X; assay type: cell-based, human; details: HT1080 cells, 10 μM
From the text: (§2) All washings were done with blocking solution.

topoisomerase II = assay: DNA topoisomerase II activity assay; assay type: cell-based, human; details: direct in vitro assay, 1 h
HT1080 cells = assay: Cell cycle analysis; assay type: cell-based, human; details: p53-dependent
Procedure: At the end of the incubation period, cells were collected, fixed and stained with propidium iodide as previously described (3a). DNA content was measured using FACScalibur (Becton Dickinson) and analyzed using CellQuest software.

NF-κB [2] = assay: Electromobility shift assay and immunofluorescent staining of nuclear NF-κB; assay type: cell-based, human
From the text: as §2

RCC cell lines = assay: Growth inhibition assay, RCC, non-RCC and normal kidney (NKE) cells; assay type: cell-based, human
Procedure: Growth inhibition assay. […] Cell survival was estimated after an additional 48 hours, using standard Methylene Blue staining followed by extraction and colorimetrical detection of the dye.

NF-κB [3] = assay: NF-κB-dependent reporter in H1299-NF-kBLuc cells; assay type: cell-based, human
Procedure: as §1

p53 [4] = assay: p53-responsive reporter activity in tumor cells (HT1080 and others); assay type: cell-based, human
Procedure: as §1

p65 subunit of NF-κB = assay: Phosphorylation of serine 536 of p65 (Western analysis); assay type: cell-based, human; details: basally and after TNF-dependent induction; 9AA 10 μM
Procedure: (§3) Cells were lysed in RIPA buffer (25 mM Tris HCl, pH 7.2, 125 mM NaCl, 1% NP40, 1% sodium deoxycholate, 1 mM EDTA) containing 1 mM PMSF (Sigma), 10 ug/ml of aprotinin (Sigma) and 10 ug/ml of leupeptin (Sigma). Protein concentrations were determined with the BioRad Dc protein assay kit. Equal protein amounts were run on gradient 4-20% precast gels (Novex) and blotted onto PVDF membranes (Amersham). The following antibodies were used: anti-p53—monoclonal mouse DO1 (Santa-Cruz), anti-p21—monoclonal mouse F-5 (Santa-Cruz), anti-mdm2—monoclonal mouse SMP14 (Santa-Cruz), anti-p65—(C20, Santa Cruz), anti-phospho-p65—(ser536, Cell Signaling), anti-IκBa—(C21, Santa Cruz), anti-p50—(NLS, Santa Cruz), anti-IKK1 (Cell Signaling), anti-γH2X (Cell Signaling), anti-actin (Santa Cruz). p53 phosphorylation status was analyzed using the phospho-p53 sampler kit from Cell Signaling according to the manufacturer's recommendations. HRP-conjugated secondary antibodies were purchased from Santa Cruz. Quantitation of the data was performed using Quantity One software from BioRad.

RCC45 and RCC54 cells = assay: Growth arrest or apoptosis of RCC cells treated with 9AA; assay type: cell-based, human
IκBα = IκBα level (Western analysis); assay type: cell-based, human
Procedure: as §3

p53 [5] = assay: Transient transfection of sr-IκB with p53-responsive reporter; assay type: cell-based, human; details: ACHN cells, 9AA 10 μM, 24 h
Procedure: as §1

p53 [6] = assay: Phosphorylation status of p53 (Western analysis); assay type: cell-based, human; details: RCC45 cells, 9AA 5 μM, 16 h
Procedure: as §3

p53 [7] = assay: p53, p21 and Mdm2 levels in treated cells (Western analysis); assay type: cell-based, human
Procedure: as §3

Procedure for p53-deficient cells: All cells were maintained in RPMI 1640 medium, supplemented with 10% FBS, 1 mM sodium pyruvate, 10 mM Hepes buffer, 55 nM β-mercaptoethanol and antibiotics. […] Cells with inhibited p53 expression were generated by retroviral transduction of pBabeH1-sip53 or pBabeH1-siGFP vectors for siRNA expression with following selection on puromycin.
Clonogenic survival. 5×10^3 cells were plated in 6-well plates and treated with different concentrations of drugs for 24 hours. Then fresh drug-free medium was added and the numbers of colonies were estimated 7-14 days later. Growth inhibition assay. […] Cell survival was estimated after an additional 48 hours, using standard Methylene Blue staining followed by extraction and colorimetrical detection of the dye.

In the case of `Nc1c2ccccc2nc2ccccc12` [9AA, 9-aminoacridine], the “activation of the p53-dependent reporter (p53 transactivation) in RCC” value (p53 [1]) is reported as “structure primarily responsible for induction of the reporter”, the “inhibition of proteasomal activity” value (proteasomal activity) is reported as “ruled out” and the “phosphorylation of histone H2A.X” value (histone H2A.X) is reported as “Neither 9AA nor QC induced phosphorylation of histone H2A.X”. The “poisoning of topoisomerase II” value (topoisomerase II) was “no such activity”, the “effect on the cell cycle” value (HT1080 cells; 3 μM) was “growth arrest” and the “effect on the cell cycle” value (HT1080 cells; 20 μM) was “apoptosis”. The “binding of NF-κB to DNA” value (NF-κB [2]; H1299-NF-κBLuc cells, with TNF 10 ng/ml, 6 h, gel-shift) was “significant increase in the binding of NF-κB to DNA”, the “nuclear accumulation and retention of NF-κB (p65) complexes” value (NF-κB [2]; TNF 10 ng/ml, 10 μM) was “greatly prolonged the time of its presence in nuclei; also recorded: causes nuclear accumulation of inactive NF-κB; also recorded: causes accumulation of p65/p50 and p50/p50 NF-κB complexes in the nuclei” and the “composition of NF-κB complexes” value (NF-κB [2]; gel-shift assays with antibodies, H1299 cells) was “did not significantly change the composition of NF-κB complexes”. The “IC50 in RCC cells compared with non-RCC cells” value (RCC cell lines; 6 RCC and 6 non-RCC cell lines, growth inhibition assay) was “in the same range as for non-RCC cells”, the “sensitivity of RCC-derived cell lines versus normal kidney epithelial (NKE) cells” value (RCC cell lines; 72 h after treatment) was “more toxic for RCC than for NKE cells; also recorded: more sensitive to 9AA than normal kidney epithelial cells” and the “toxicity to p53-deficient cells (p53 dependence of cytotoxicity)” value (p53-deficient cells) was “less toxic to p53-deficient cells”. For the same compound, the “basal and TNF-induced NF-κB reporter activities” value (NF-κB [3]; H1299-NF-kB-Luc cells, TNF 10 ng/ml) was “strong dose-dependent suppression; also recorded: capable of inhibiting both basal and TNF-induced activities of NF-κB”, the “inhibition of NF-κB transactivation induced by trichostatin A” value (NF-κB [3]; H1299 cells, 100 nM TSA, 9AA 20 μM, 4 or 16 hours) was “could no longer be blocked by 9AA; also recorded: does not inhibit” and the “time of peak (maximum) p53 reporter activity” value (p53 [4]; HT1080 cells) was 24 h. The “activation of p53-mediated transcription compared with DNA-damaging agents” value (p53 [4]; tumor cells with wild-type p53, 9AA 1-10 μM, doxorubicin 0.2-2 μM, 24 h) was “more strongly than doxorubicin in the majority of tumor cells tested; also recorded: more strongly than DNA-damaging agents”, the “proportion of phosphorylated serine 536 in the p65 subunit of NF-κB” value (p65 subunit of NF-κB) was “reduce the proportion of phosphorylated serine 536; also recorded: decreases the phosphorylation of p65 in response to TNF” and the “cellular effect in RCC45 and RCC54 cells” value (RCC45 and RCC54 cells; 2 μM) was “growth arrest”. For the same compound, the “cellular effect in RCC45 and RCC54 cells” value (RCC45 and RCC54 cells; 10 μM) was “apoptosis”, the “level of IκBα” value (IκBα; PC-3 cells 10 μM 1-8 h, MCF7 cells 10 μM) was “gradual decrease or even complete disappearance of IκBα” and the “TNF-stimulated induction of IκBα” value (IκBα; TNF 10 ng/ml, 9AA 10 μM) was “blocked; also recorded: inhibits reconstitution of the level of IκB protein”. The “activation of a p53-dependent reporter in the presence of sr-IκB” value (p53 [5]) was “could not further activate”, the “phosphorylation of p53” value (p53 [6]) was “did not induce the phosphorylation of p53” and the “phosphorylation of p53 serine 392” value (p53 [6]) was “increasingly phosphorylated”. The “levels of the endogenous proteins p21 and Mdm2” value (p53 [7]; cells treated for 16 h) was “dose-dependent increase”, the “p53 mRNA expression” value (p53 [7]; data not shown) was “No increase” and the “stabilization and accumulation of p53 protein” value (p53 [7]; treated cells (HT1080, 5 μM 9AA, 16 hours in FIG. 6)) was “induced stabilization and accumulation of p53 protein; also recorded: leads to p53 stabilization”.
